According to patent US20250009901A1, “COMPOSITION COMPRISING A COMBINATION OF IMMUNE CHECKPOINT INHIBITOR AND ANTIBODY-AMATOXIN CONJUGATE FOR USE IN CANCER THERAPY” (Heidelberg Pharma Research GmbH, priority 2020, published 2025):

How the values were obtained:
RNA-polymerase II = RNA-polymerase II (Homo sapiens, UniProt P24928); conditions: read-out: KD of the complex between amanitin and RNA-polymerase II; cited from earlier work
[1] = tested on: CD79b-positive cell line BJAB; assay: Calreticulin measurement (ICD marker), flow cytometry; type: cell-based, human; conditions: Amanitin 100 nM, conjugates 50 nM antibody, 24, 48, 72 h post-treatment, vs media only
Experimental: (§1) The Her2-positive cell line BT474 is a human breast cancer cell line. The CD79b-positive cell line BJAB is a human Burkitt lymphoma-derived B cell line.
(§2) Cells of the Her2-positive cell line BT474 and of the CD79b-positive cell line BJAB, respectively, were plated at 8×10^4 cells per well in 100 μL of media. Flat bottom or U-bottom plates were used for BT474 or BJAB cells, respectively. The following day, media was changed. […] Then, cells were treated with media alone, Maytansine (100 nM), Amanitin (100 nM), Anti-HER2-Amanitin conjugate (50 nM antibody), or Anti-CD79b-Amanitin conjugate (50 nM antibody) for 16-72 h.
(§3) Cells were assayed at 24, 48, and 72 h post-treatment. The adherent BT474 cells were lifted with a solution of highly purified, recombinant cell-dissociation enzymes (TrypLE, Thermo-Fisher) for 2 min. at 37° C. Both BT474 and BJAB cells were washed with PBS/2% FBS and then fixed in 0.5% paraformaldehyde for 5 min. After washing twice with cold PBS/2% FBS, cells were incubated for 5 min. with an Fc receptor binding inhibitor (FC block, eBioscience), blocking Fc receptor-mediated non-specific binding, followed by 30-min. incubation with Anti-Calreticulin-FITC (Abcam) or isotype control-FITC (Abcam). […] Propidium iodide (PI) was added, and samples were analyzed by flow cytometry on a FACSCanto instrument (Becton-Dickinson) using FACS Diva software.

[2] = tested on: Her2-positive cell line BT474; assay: as above; type: cell-based, human; conditions: Amanitin 100 nM, conjugates 50 nM antibody, 24, 48, 72 h post-treatment, vs media only
Experimental: as §1, §2, §3

[3] = tested on: CD79b-positive cell line BJAB; assay: Extracellular ATP measurement (ICD marker); type: cell-based, human; conditions: Amanitin 100 nM, conjugates 50 nM antibody, 16, 40, 64 h post-treatment, vs media only
Experimental: as §1, §2
(§4) At 16, 40, and 64 h post-treatment, culture media was transferred to reaction tubes (Eppendorf) and centrifuged gently. Extracellular ATP concentrations were determined by use of the ENLITEN ATP Assay (Promega). Chemiluminescence was measured on a SpectraMax ME chemiluminescence reader (Molecular Devices).

[4] = tested on: Her2-positive cell line BT474; assay: Extracellular ATP measurement (ICD marker); type: cell-based, human; conditions: Amanitin 100 nM, conjugates 50 nM antibody, 16, 40, 64 h post-treatment, vs media only
Experimental: as §1, §2, §4

[5] = tested on: CD79b-positive cell line BJAB; assay: Extracellular HMGB1 measurement (ICD marker), ELISA; type: cell-based, human; conditions: Amanitin 100 nM, conjugates 50 nM antibody, 24, 48, 72 h post-treatment, vs media only
Experimental: as §1, §2
(§5) Culture media was collected at 24, 48, and 72 h post-treatment. Analytes were captured on a Nunc Maxisorp 96-well plate coated at pH 9 with 1 μg/mL Anti-HMGB1 antibody (clone 1D5, Sigma), and plates were blocked with casein buffer (ThermoFisher). A standard curve was generated using recombinant human HMGB1 protein (R&D Systems) added to culture media that had been incubated at 37° C./5% CO2 for the same number of days as the experimental samples. This step had the effect of normalizing background signals observed in fresh culture media. […] After 30 min, the plate was washed with PBS/0.1% Tween-20, and bound secondary antibody was detected using Ultra TMB (Thermo Fisher); signals were read on a Molecular Devices Spectra Max M5 plate reader. […]

[6] = tested on: Her2-positive cell line BT474; assay: as above; type: cell-based, human; conditions: Amanitin 100 nM, conjugates 50 nM antibody, 24, 48, 72 h post-treatment, vs media only
Experimental: as §1, §2, §5

[7] = tested on: CD19-positive Raji cells (human Burkitt lymphoma); assay: Raji xenograft mouse model with human PBMCs, ATAC and Avelumab (first Example 4, FIG. 5); type: in vivo, mice
Experimental: FIG. 5. Synergistic action of Avelumab and Anti-CD19-Amatoxin conjugate in the presence of peripheral blood mononuclear cells (PBMCs). Results of anti-tumoral studies using anti-PD-L1 antibody Avelumab (20 mg/kg, i.v., days 0, 3, 6, 8, 10, 13), or anti-CD19-amatoxin conjugate (ATAC, 0.1 and 0.3 mg/kg, respectively; single dose i.v. day 0), or a combination of Avelumab (20 mg/kg) and ATAC (0.1 and 0.3 mg/kg, respectively), in vivo in a Raji xenograft mice model system. Tumor volume was assessed at various time points after tumor cell inoculation.
The cytotoxic activity of the combination comprising an ICI and an ATAC has been assessed by use of a tumor mouse model in vivo. The study consisted of 6 experimental groups with 12 animals each. CD19-positive Raji cells (human Burkitt lymphoma, DSMZ) were premixed with human peripheral blood mononuclear cells (PBMCs, German Red Cross) and inoculated subcutaneously on study day 0. […] Tumor volumes were measured twice per week by calliper measurements and body weights were determined in parallel. […]

Amanitin
Kd (RNA-polymerase II): 3 nM | cell surface exposure of calreticulin (CRT) [1]: did not induce | cell surface exposure of calreticulin (CRT) [2]: did not induce | ATP secretion [3]: did not induce | ATP secretion [4]: did not induce | HMGB1 release [5]: did not induce | HMGB1 release [6]: did not induce

Avelumab: PD-L1-specific antibody
Reduction of the tumor volumes as compared to the control group (PBS), single agents compared with each other ([7]; Avelumab 20 mg/kg alone, ATAC 0.1 mg/kg alone): comparable | Mean TV (tumor volume) ([7]; day 31 post tumor cell inoculation, Avelumab 20 mg/kg i.v. days 0, 3, 6, 8, 10, 13): 353.1 mm^3
